Values quoted from earlier work, collected in patent US9364476B2, “Methods of treating a Bruton's Tyrosine Kinase disease or disorder” (Celgene Avilomics Research, Inc., priority 2011, dated 2016).

Target: Spleen tyrosine kinase (Syk) (Homo sapiens, UniProt P43405)
Details: DLBCL, CLL, and mantle cell lymphoma; cited from earlier work

Q: For `COc1cc(Nc2ncc(F)c(Nc3ccc4c(n3)N(COP(=O)(O)O)C(=O)C(C)(C)O4)n2)cc(OC)c1OC` [fostamatinib disodium], which clinical response is on record?
A: clinical responses
